MIC data for four molecules are collected here from DBAASP.

Among the test systems are Escherichia coli SBS 363; Escherichia coli JM109; Bacillus subtilis BR151; Pasteurella multocida; Bibersteinia trehalosi; Aspergillus fumigatus; Staphylococcus aureus; Klebsiella pneumoniae.
Holding throughout (experiment): ≥ marks a high value that may be exact or a test limit, other limits are often not marked, values filed in µg/mL are converted to µM
Assay [1] relates to Staphylococcus aureus ATCC 12600.
Assay [2] relates to Escherichia coli ATCC 11775.
Assay [3] deals with Micrococcus luteus ATCC 49732.
Assay [4] deals with Staphylococcus aureus ATCC 6538.
The test system of assay [5] is Pseudomonas aeruginosa ATCC 14502.
Assay [6] relates to Enterococcus faecium A634.
Assay [7] relates to Staphylococcus aureus 1206.
The subject of assay [8] is Staphylococcus aureus CCARM 3572.
Assay [9] deals with Enterococcus faecium CCARM 5028.
Assay [10] concerns Escherichia coli KCCM 11569.
Assay [11] has as its system Pseudomonas aeruginosa CCARM 2095.
For assay [12], the system named is Pseudomonas aeruginosa CCARM 2092.
The subject of assay [13] is Enterococcus faecium CCARM 5029.
For assay [14], the system named is Bacillus subtilis KCCM 11495.
Assay [15] relates to Mannheimia haemolytica Serovar 6.
Assay [16] relates to Pseudomonas aeruginosa PAO1.
The subject of assay [17] is Corynebacterium pseudotuberculosis ATCC 19410.
Assay [18] relates to Mannheimia haemolytica Serovar 1.
In assay [19] the test system is Mannheimia haemolytica Serovar 2.
Assay [20] has as its system Salmonella enterica subsp. arizonae.

Converted amounts (≈) assume the structure as drawn. “And” between values parts separate entries of the source, which are not always exact repeats. Identical values can stand only once.

The MIC is the smallest concentration in the dilution series that meets the test's criterion for growth inhibition. In the case of `CC[C@H](C)[C@H](NC(=O)[C@H](C)NC(=O)[C@H](CO)NC(=O)[C@@H](NC(=O)[C@H](C)NC(=O)[C@H](CC(N)=O)NC(=O)[C@@H](NC(=O)[C@H](C)NC(=O)[C@H](Cc1cnc[nH]1)NC(=O)[C@@H]1CCCN1C(=O)[C@@H](NC(=O)[C@H](CC(C)C)NC(=O)[C@H](CO)NC(=O)[C@H](CC(C)C)NC(=O)[C@@H](N)Cc1ccccc1)[C@@H](C)CC)[C@@H](C)CC)C(C)C)C(=O)N[C@@H](C)C(=O)N[C@@H](CCCCN)C(=O)N[C@@H](Cc1cnc[nH]1)C(=O)N[C@@H](Cc1ccccc1)C(N)=O` [FLSLIPHAINAVSAIAKHF], the MIC came out at 6 µM (≈ 12.3 µg/mL) in the assay with Escherichia coli SBS 363; 3.6 µM (≈ 7.37 µg/mL) in assay [1]; 7.2 µM (≈ 14.7 µg/mL) in assay [2]; 1.8 µM (≈ 3.69 µg/mL) in [3]; 6 µM (≈ 12.3 µg/mL) in assay [4]; 6 µM (≈ 12.3 µg/mL) in assay [5].

Take `CCC(C)[C@H](NC(=O)CN)C(=O)NCC(=O)N[C@@H](CCCCN)C(=O)N[C@@H](Cc1ccccc1)C(=O)N[C@@H](CC(C)C)C(=O)N[C@@H](Cc1cnc[nH]1)C(=O)N[C@@H](C)C(=O)N[C@@H](C)C(=O)N[C@@H](CCCCN)C(=O)N[C@@H](CCCCN)C(=O)N[C@@H](Cc1ccccc1)C(=O)N[C@@H](C)C(=O)N[C@@H](CCCCN)C(=O)N[C@@H](C)C(=O)N[C@@H](Cc1ccccc1)C(=O)N[C@H](C(=O)N[C@@H](C)C(=O)N[C@@H](CCC(=O)O)C(=O)N[C@H](C(=O)N[C@@H](CCSC)C(=O)N[C@@H](CC(N)=O)C(=O)N[C@@H](CO)C(N)=O)C(C)CC)C(C)C` (stereo partly drawn) [GIGKFLHAAKKFAKAFVAEIMNS]: the MIC in assay [6] was 20.2 µM (≈ 50 µg/mL); in the assay on Escherichia coli JM109 it was 2.42 µM (≈ 6 µg/mL); in [7], 20.2 µM (≈ 50 µg/mL); against Bacillus subtilis BR151, 1.21 µM (≈ 3 µg/mL).

`CC(C)C[C@H](NC(=O)CNC(=O)[C@H](CCCCN)NC(=O)[C@H](CCCCN)NC(=O)[C@H](CC(C)C)NC(=O)[C@H](CC(C)C)NC(=O)[C@H](C)NC(=O)[C@H](CC(N)=O)NC(=O)[C@H](CC(C)C)NC(=O)[C@H](Cc1c[nH]c2ccccc12)NC(=O)[C@@H](N)CCCCN)C(=O)N[C@@H](CC(N)=O)C(=O)N[C@@H](CS)C(=O)N[C@@H](C)C(=O)N[C@@H](CCCCN)C(=O)NCC(=O)N[C@H](C(=O)N[C@@H](CC(C)C)C(=O)N[C@@H](C)C(N)=O)C(C)C` [KWLNALLKKGLNCAKGVLA]: the minimal inhibitory concentration (MIC) is 5.54 µM (≈ 11.3 µg/mL) in assay [8]; 0.693 µM and 1.39 µM in [9]; 1.39 µM (≈ 2.83 µg/mL) in assay [10]; 2.77 µM (≈ 5.65 µg/mL) in [11]; 1.39 µM (≈ 2.83 µg/mL) in assay [12]; 0.693 µM and 1.39 µM in assay [13]. Also, the MIC in assay [14] was determined as 0.49 µM (≈ 1 µg/mL).

Consider `CC[C@H](C)[C@H](NC(=O)[C@H](CCCN=C(N)N)NC(=O)[C@H](CCCN=C(N)N)NC(=O)[C@@H](NC(=O)[C@@H](N)CC(N)=O)[C@@H](C)CC)C(=O)N[C@H](C(=O)N[C@@H](CCCN=C(N)N)C(=O)N[C@@H](CCCCN)C(=O)N[C@H](C(=O)N[C@H](C(=O)N[C@@H](Cc1cnc[nH]1)C(=O)N[C@H](C(=O)N[C@H](C(=O)N[C@@H](CCCCN)C(=O)N[C@@H](CCCCN)C(=O)N[C@@H](Cc1ccc(O)cc1)C(=O)O)[C@@H](C)CC)[C@@H](C)CC)[C@@H](C)CC)[C@@H](C)CC)[C@@H](C)CC` [NIRRIIRKIIHIIKKY], for which the minimum inhibitory concentration (MIC) worked out at 1.59 µM (≈ 3.3 µg/mL) in [15]; 2.02 µM (≈ 4.2 µg/mL) in assay [16]; 9.63 µM (≈ 20 µg/mL) in [17]; 0.722 µM (≈ 1.5 µg/mL) in assay [18]; 0.626 µM (≈ 1.3 µg/mL) in the assay on Pasteurella multocida; 3.61 µM (≈ 7.5 µg/mL) against Bibersteinia trehalosi. For the same molecule, the MIC in assay [19] stood at 1.59 µM (≈ 3.3 µg/mL); with Aspergillus fumigatus, 4 µM (≈ 8.3 µg/mL); against Staphylococcus aureus, 4.81 µM (≈ 10 µg/mL); in assay [20], 2.41 µM (≈ 5 µg/mL); against Klebsiella pneumoniae it was 0.818 µM (≈ 1.7 µg/mL).
